Source: patent publication US10213433B2 (AbbVie Inc., priority 2010, dated 2019)
pKi: −log10 of the molar value.

Each compound was assayed against Bcl-2 protein (Homo sapiens (Human), UniProt P10415) (assay: Bcl-2 binding TR-FRET (Time-Resolved Fluorescence-Resonance-Energy-Transfer) assay). Conditions: inhibition constant for binding to Bcl-2 protein.
Text: The smaller the Ki value, the greater is the binding affinity.

Chain of Bcl-2 protein (P10415 whole entry): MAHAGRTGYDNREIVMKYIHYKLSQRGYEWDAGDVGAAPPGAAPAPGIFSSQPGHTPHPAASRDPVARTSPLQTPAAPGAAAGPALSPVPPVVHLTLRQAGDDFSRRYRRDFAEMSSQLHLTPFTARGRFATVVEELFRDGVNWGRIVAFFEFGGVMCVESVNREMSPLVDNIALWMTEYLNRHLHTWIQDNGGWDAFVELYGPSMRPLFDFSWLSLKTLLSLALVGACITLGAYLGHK

| SMILES | pKi |
| --- | --- |
| CC1(C)CCC(CN2CCN(c3ccc(C(=O)NS(=O)(=O)c4ccc(NC5CCN(C6CCOC(C)(C)C6)CC5)c([N+](=O)[O-])c4)c(Oc4cnc5[nH]ccc5c4)c3)CC2)=C(c2ccc(Cl)cc2)C1 (stereo not drawn) [Compound 141, 4-(4-{[2-(4-chlorophenyl)-4,4-dimethylcyclohex-1-en-1-yl]methyl}piperazin-1-yl)-N-[(4-{[1-(2,2-dimethyltetrahydro-2H-pyran-4-yl)piperidin-4-yl]amino}-3-nitrophenyl)sulfonyl]-2-(1H-pyrrolo[2,3-b]pyridin-5-yloxy)benzamide] | > 11.00 |
| CC1(C)CCC(CN2CCN(c3ccc(C(=O)NS(=O)(=O)c4ccc(NC5CCN(C6CCOC6)CC5)c([N+](=O)[O-])c4)c(Oc4cnc5[nH]ccc5c4)c3)CC2)=C(c2ccc(Cl)cc2)C1 (stereo not drawn) [Compound 143, 4-(4-{[2-(4-chlorophenyl)-4,4-dimethylcyclohex-1-en-1-yl]methyl}piperazin-1-yl)-N-({3-nitro-4-[(1-tetrahydrofuran-3-ylpiperidin-4-yl)amino]phenyl}sulfonyl)-2-(1H-pyrrolo[2,3-b]pyridin-5-yloxy)benzamide] | > 11.00 |
| CC1(C)CCC(CN2CCN(c3ccc(C(=O)NS(=O)(=O)c4ccc(N[C@@H]5CCN(C6CC6)C5)c([N+](=O)[O-])c4)c(Oc4cnc5[nH]ccc5c4)c3)CC2)=C(c2ccc(Cl)cc2)C1 [Compound 144, 4-(4-{[2-(4-chlorophenyl)-4,4-dimethylcyclohex-1-en-1-yl]methyl}piperazin-1-yl)-N-[(4-{[(3R)-1-cyclopropylpyrrolidin-3-yl]amino}-3-nitrophenyl)sulfonyl]-2-(1H-pyrrolo[2,3-b]pyridin-5-yloxy)benzamide] | > 11.00 |
| CC1(C)CCC(CN2CCN(c3ccc(C(=O)NS(=O)(=O)c4ccc(NC[C@@H]5CCN(C6CCOCC6)C5)c([N+](=O)[O-])c4)c(Oc4cnc5[nH]ccc5c4)c3)CC2)=C(c2ccc(Cl)cc2)C1 [Compound 145, 4-(4-{[2-(4-chlorophenyl)-4,4-dimethylcyclohex-1-en-1-yl]methyl}piperazin-1-yl)-N-{[3-nitro-4-({[(3S)-1-tetrahydro-2H-pyran-4-ylpyrrolidin-3-yl]methyl}amino)phenyl]sulfonyl}-2-(1H-pyrrolo[2,3-b]pyridin-5-yloxy)benzamide] | > 11.00 |
| CC(C)(CO)CNc1ccc(S(=O)(=O)NC(=O)c2ccc(N3CCN(CC4=C(c5ccc(Cl)cc5)CC(C)(C)CC4)CC3)cc2Oc2cnc3[nH]ccc3c2)cc1[N+](=O)[O-] [Compound 146, 4-(4-{[2-(4-chlorophenyl)-4,4-dimethylcyclohex-1-en-1-yl]methyl}piperazin-1-yl)-N-({4-[(3-hydroxy-2,2-dimethylpropyl)amino]-3-nitrophenyl}sulfonyl)-2-(1H-pyrrolo[2,3-b]pyridin-5-yloxy)benzamide] | > 11.00 |
| CC1(C)CCC(CN2CCN(c3ccc(C(=O)NS(=O)(=O)c4ccc(NCC5CCCN(S(C)(=O)=O)C5)c([N+](=O)[O-])c4)c(Oc4cnc5[nH]ccc5c4)c3)CC2)=C(c2ccc(Cl)cc2)C1 (stereo not drawn) [Compound 147, 4-(4-{[2-(4-chlorophenyl)-4,4-dimethylcyclohex-1-en-1-yl]methyl}piperazin-1-yl)-N-{[4-({[1-(methylsulfonyl)piperidin-3-yl]methyl}amino)-3-nitrophenyl]sulfonyl}-2-(1H-pyrrolo[2,3-b]pyridin-5-yloxy)benzamide] | > 11.00 |
| CC(=O)N1CCCC(CNc2ccc(S(=O)(=O)NC(=O)c3ccc(N4CCN(CC5=C(c6ccc(Cl)cc6)CC(C)(C)CC5)CC4)cc3Oc3cnc4[nH]ccc4c3)cc2[N+](=O)[O-])C1 (stereo not drawn) [Compound 148, N-[(4-{[(1-acetylpiperidin-3-yl)methyl]amino}-3-nitrophenyl)sulfonyl]-4-(4-{[2-(4-chlorophenyl)-4,4-dimethylcyclohex-1-en-1-yl]methyl}piperazin-1-yl)-2-(1H-pyrrolo[2,3-b]pyridin-5-yloxy)benzamide] | > 11.00 |
| CC1(C)CCC(CN2CCN(c3ccc(C(=O)NS(=O)(=O)c4ccc(N[C@@H]5CCN(S(C)(=O)=O)C5)c([N+](=O)[O-])c4)c(Oc4cnc5[nH]ccc5c4)c3)CC2)=C(c2ccc(Cl)cc2)C1 [Compound 149, 4-(4-{[2-(4-chlorophenyl)-4,4-dimethylcyclohex-1-en-1-yl]methyl}piperazin-1-yl)-N-[(4-{[(3R)-1-(methylsulfonyl)pyrrolidin-3-yl]amino}-3-nitrophenyl)sulfonyl]-2-(1H-pyrrolo[2,3-b]pyridin-5-yloxy)benzamide] | > 11.00 |
| CC1(C)CCCC(CN2CCN(c3ccc(C(=O)NS(=O)(=O)c4ccc(NCC5CCOCC5)c([N+](=O)[O-])c4)c(Oc4cnc5[nH]ccc5c4)c3)CC2)=C1c1ccc(Cl)cc1 [Compound 150, 4-(4-{[2-(4-chlorophenyl)-3,3-dimethylcyclohex-1-en-1-yl]methyl}piperazin-1-yl)-N-({3-nitro-4-[(tetrahydro-2H-pyran-4-ylmethyl)amino]phenyl}sulfonyl)-2-(1H-pyrrolo[2,3-b]pyridin-5-yloxy)benzamide] | > 11.00 |
| CC1(C)CCC(CN2CCN(c3ccc(C(=O)NS(=O)(=O)c4ccc(NCC5CCN(S(C)(=O)=O)C5)c([N+](=O)[O-])c4)c(Oc4cnc5[nH]ccc5c4)c3)CC2)=C(c2ccc(Cl)cc2)C1 (stereo not drawn) [Compound 152, 4-(4-{[2-(4-chlorophenyl)-4,4-dimethylcyclohex-1-en-1-yl]methyl}piperazin-1-yl)-N-{[4-({[1-(methylsulfonyl)pyrrolidin-3-yl]methyl}amino)-3-nitrophenyl]sulfonyl}-2-(1H-pyrrolo[2,3-b]pyridin-5-yloxy)benzamide] | > 11.00 |
| CC(=O)N1CCC(CNc2ccc(S(=O)(=O)NC(=O)c3ccc(N4CCN(CC5=C(c6ccc(Cl)cc6)CC(C)(C)CC5)CC4)cc3Oc3cnc4[nH]ccc4c3)cc2[N+](=O)[O-])C1 (stereo not drawn) [Compound 153, N-[(4-{[(1-acetylpyrrolidin-3-yl)methyl]amino}-3-nitrophenyl)sulfonyl]-4-(4-{[2-(4-chlorophenyl)-4,4-dimethylcyclohex-1-en-1-yl]methyl}piperazin-1-yl)-2-(1H-pyrrolo[2,3-b]pyridin-5-yloxy)benzamide] | > 11.00 |
| CC(=O)N1CC[C@@H](Nc2ccc(S(=O)(=O)NC(=O)c3ccc(N4CCN(CC5=C(c6ccc(Cl)cc6)CC(C)(C)CC5)CC4)cc3Oc3cnc4[nH]ccc4c3)cc2[N+](=O)[O-])C1 [Compound 154, N-[(4-{[(3R)-1-acetylpyrrolidin-3-yl]amino}-3-nitrophenyl)sulfonyl]-4-(4-{[2-(4-chlorophenyl)-4,4-dimethylcyclohex-1-en-1-yl]methyl}piperazin-1-yl)-2-(1H-pyrrolo[2,3-b]pyridin-5-yloxy)benzamide] | > 11.00 |
| CC1(C)CCC(CN2CCN(c3ccc(C(=O)NS(=O)(=O)c4ccc(NC[C@@H]5CC[C@@H](O)C5)c([N+](=O)[O-])c4)c(Oc4cnc5[nH]ccc5c4)c3)CC2)=C(c2ccc(Cl)cc2)C1 [Compound 156, 4-(4-{[2-(4-chlorophenyl)-4,4-dimethylcyclohex-1-en-1-yl]methyl}piperazin-1-yl)-N-{[4-({[(1R,3R)-3-hydroxycyclopentyl]methyl}amino)-3-nitrophenyl]sulfonyl}-2-(1H-pyrrolo[2,3-b]pyridin-5-yloxy)benzamide] | > 11.00 |
| CC1(C)CCC(CN2CCN(c3ccc(C(=O)NS(=O)(=O)c4ccc(NC[C@H]5CC[C@H](O)C5)c([N+](=O)[O-])c4)c(Oc4cnc5[nH]ccc5c4)c3)CC2)=C(c2ccc(Cl)cc2)C1 [Compound 157, 4-(4-{[2-(4-chlorophenyl)-4,4-dimethylcyclohex-1-en-1-yl]methyl}piperazin-1-yl)-N-{[4-({[(1S,3S)-3-hydroxycyclopentyl]methyl}amino)-3-nitrophenyl]sulfonyl}-2-(1H-pyrrolo[2,3-b]pyridin-5-yloxy)benzamide] | > 11.00 |
| CC1(C)CCC(CN2CCN(c3ccc(C(=O)NS(=O)(=O)c4ccc(NC[C@H]5CC[C@@H](O)C5)c([N+](=O)[O-])c4)c(Oc4cnc5[nH]ccc5c4)c3)CC2)=C(c2ccc(Cl)cc2)C1 [Compound 158, 4-(4-{[2-(4-chlorophenyl)-4,4-dimethylcyclohex-1-en-1-yl]methyl}piperazin-1-yl)-N-{[4-({[(1S,3R)-3-hydroxycyclopentyl]methyl}amino)-3-nitrophenyl]sulfonyl}-2-(1H-pyrrolo[2,3-b]pyridin-5-yloxy)benzamide] | > 11.00 |
| CC1(C)CCC(CN2CCN(c3ccc(C(=O)NS(=O)(=O)c4ccc(NC[C@@H]5CC[C@H](O)C5)c([N+](=O)[O-])c4)c(Oc4cnc5[nH]ccc5c4)c3)CC2)=C(c2ccc(Cl)cc2)C1 [Compound 159, 4-(4-{[2-(4-chlorophenyl)-4,4-dimethylcyclohex-1-en-1-yl]methyl}piperazin-1-yl)-N-{[4-({[(1R,3S)-3-hydroxycyclopentyl]methyl}amino)-3-nitrophenyl]sulfonyl}-2-(1H-pyrrolo[2,3-b]pyridin-5-yloxy)benzamide] | > 11.00 |
| CC1(C)CCC(CN2CCN(c3ccc(C(=O)NS(=O)(=O)c4ccc(N[C@H]5CCCNC5=O)c([N+](=O)[O-])c4)c(Oc4cnc5[nH]ccc5c4)c3)CC2)=C(c2ccc(Cl)cc2)C1 [Compound 160, 4-(4-{[2-(4-chlorophenyl)-4,4-dimethylcyclohex-1-en-1-yl]methyl}piperazin-1-yl)-N-[(3-nitro-4-{[(3S)-2-oxopiperidin-3-yl]amino}phenyl)sulfonyl]-2-(1H-pyrrolo[2,3-b]pyridin-5-yloxy)benzamide] | > 11.00 |
| CC1(C)CCC(CN2CCN(c3ccc(C(=O)NS(=O)(=O)c4ccc(NCC5CN(C(CF)CF)C5)c([N+](=O)[O-])c4)c(Oc4cnc5[nH]ccc5c4)c3)CC2)=C(c2ccc(Cl)cc2)C1 [Compound 161, 4-(4-{[2-(4-chlorophenyl)-4,4-dimethylcyclohex-1-en-1-yl]methyl}piperazin-1-yl)-N-({4-[({1-[2-fluoro-1-(fluoromethyl)ethyl]azetidin-3-yl}methyl)amino]-3-nitrophenyl}sulfonyl)-2-(1H-pyrrolo[2,3-b]pyridin-5-yloxy)benzamide] | > 11.00 |
